pIC50: −log10 of the molar value. Where a name gives a salt, the structure may show the parent alone. Read-outs that look alike come from different tables or passages of the source.
Legend:
HIV protease = target: T1, HIV protease (Human immunodeficiency virus type 1 group M subtype B, UniProt P04585); experiment: HIV Protease Assay; type: biochemical
T1 construct: and purified protease
Summary of the method: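 At a single final concentration of 10 μM (4% DMSO), inhibitors were added to a 30-minute, 37° C reaction of purified enzyme with 450 μM H2N-Val-Ser-Gln-Asn-(β-naphthyl-alanine)-Pro-Val-Ile-OH at pH 5.5 (sodium acetate, BSA). Hydrolysis was quantified by reverse-phase HPLC with 220 nm detection after acid quench.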

[1] = tested on: RF strain of HIV (CEM-SS cells); experiment: Cell Culture Anti-HIV Activity (cell viability, formazan); type: cell-based; conditions: CEM-SS cells, RF strain of HIV, multiplicity of infection 0.04, 6 days at 37° C., 450 nm, read-out: HIV (CEM Cells) IC50
Summary of the method: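 Half-log compound dilutions added to CEM-SS cells (5000/well) carrying HIV RF (MOI 0.04), 6 days, 37° C. Cell protection measured as formazan from tetrazolium, A450. IC50: drug level restoring infected-cell formazan to 50% of the uninfected untreated control.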

[2] = pH 5.5, read-out: HIV Protease % Inhibition at 10 μM
[3] = Human immunodeficiency virus 1, CEM-SS, 144 h
[4] = pH 5.5, 10 μM inhibitor, 4% DMSO, 450 μM substrate, pH 5.5, 30 minutes at 37° C., RP-HPLC, read-out: HIV Protease % Inhibition at 10 μM

| SMILES | inhibition at 10 µM (HIV protease; [4]) [%] | pIC50 [1, 3] | also measured |
| --- | --- | --- | --- |
| CC(C)(C)OC(=O)N[C@@H](Cc1ccccc1)[C@H](O)CNC[C@@H](O)[C@H](Cc1ccccc1)NC(=O)[C@](C)(O)C(C)(C)C [Compound 262, [1S-[1R*,2S*[2S*,3R*(S*)]]]-[3-[[3-[(2-Hydroxy-2,3,3-trimethyl-1-oxobutyl)amino]-2-hydroxy-4-phenylbutyl]amino]-2-hydroxy-1-(phenylmethyl)propyl]carbamic acid, 1.1-dimethylethyl ester] | – | 7.52 | inhibition at 10 µM (HIV protease; [2]): 100% |
| CC(C)(C)OC(=O)N[C@@H](Cc1ccccc1)[C@H](O)CNC[C@@H](O)[C@H](Cc1ccccc1)NC(=O)C(C)(O)C(C)(C)CO (single isomer, unassigned; isomer b) [Compound 357, [1S-[1R*,2S*(2S*,3R*)]]-[3-[[3-[(2,4-Dihydroxy-2,3,3-trimethyl-1-oxobutyl)amino]-2-hydroxy-4-phenylbutyl]amino]-2-hydroxy-1-(phenylmethyl)propyl]carbamic acid, 1,1-dimethylethyl ester, isomer B] | – | – | HIV Protease % Inhibition at 10 μM (HIV protease): 99%; pIC50 [1]: 6.96 |
| CC(C)(C)OC(=O)N[C@@H](Cc1ccccc1)[C@H](O)CNC[C@@H](O)[C@H](CC1CCCCC1)NC(=O)OC(C)(C)C [Compound 15, [1S-[1R*,2S*(2S*,3R*)]]-[3-[[4-Cyclohexyl-3-[[(1,1-dimethylethoxy)carbonyl]-amino]-2-hydroxybutyl]amino-2-hydroxy-1-(phenylmethyl)propyl]carbamic acid, 1,1-dimethylethyl ester] | 98 | 6.42 | – |
| CC(C)[C@H](NC(=O)[C@H](Cc1ccccc1)NC(=O)OCc1ccccc1)C(=O)N[C@@H](Cc1ccccc1)[C@H](O)CNC[C@@H](O)[C@H](Cc1ccccc1)NC(=O)OC(C)(C)C [Compound 62, [1S-[1R*,2S*(2S*,3R*)]-N-[3-[[3-[[(1,1-Dimethylethoxy)carbonyl]amino]-2-hydroxy-4-phenylbutyl]amino]-2-hydroxy-1-(phenyl-methyl)propyl]-N^2-[(phenylmethoxy)carbonyl]-L-phenylalanyl]-L-valinamide] | 98 | 7.30 | – |
| CC(C)(C)OC(=O)N[C@@H](Cc1ccccc1)[C@H](O)CNC[C@@H](O)[C@H](Cc1ccccc1)NC(=O)[C@@H](NC(=O)OCCOCc1ccccc1)C(C)(C)C [Compound 351, [S-[1R*,2S*(2S*,3R*)]]-[2,2-Dimethyl-1-[[[3-[[3-[[(1,1-dimethyl-ethoxy)carbonyl]amino]-2hydroxy-4-phenylbutyl]amino-2-hydroxy-1-(phenylmethyll)-propyl]amino]carbonyl]propyl]carbamic acid, 2-(phenylmethoxy)ethyl ester] | 99 | 7.10 | – |
| C[C@H](O)[C@H](NC(=O)OCc1ccccc1)C(=O)N[C@@H](Cc1ccccc1)[C@H](O)CNC[C@@H](O)[C@H](Cc1ccccc1)NC(=O)OC(C)(C)C (relative stereo) [Compound 205, [1R*,2S*(2S*,3R*)]-N-[3-[[3-[[(1,1-Dimethylethoxy)carbonyl]amino]-2-hydroxy-4-phenylbutyl]amino]-2-hydroxy-1-(phenylmethyl)propyl]-N^2-[(phenylmethoxy)carbonyl]-L-allothreoninamide] | 98 | 7.15 | – |
| CC(C)(C)OC(=O)N[C@@H](Cc1ccccc1)[C@H](O)CNC[C@@H](O)[C@H](Cc1ccc(OCc2ccccc2)cc1)NC(=O)OC(C)(C)C [Compound 179, [1S-[1R*,2S*(2S*,3R*)]]-[3-[[3-[[(1,1-Dimethylethoxy)carbonyl]amino]-2-hydroxy-4-phenylbutyl]amino]-2-hydroxy-1-[[4-(phenylmethoxy)-phenyl]methyl]propyl]carbamic acid, 1,1-dimethylethyl ester] | 99 | 6.77 | – |
| CC(C)(C)OC(=O)N[C@@H](Cc1ccccc1)[C@H](O)CNC[C@@H](O)[C@H](Cc1ccccc1)NC(=O)O[C@@H]1CCc2ccccc21 [Compound 145, [1S-(1R*,2S*)]-[Iminobis[2-hydroxy-1-(phenylmethyl)-3,1-propanediyl)]biscarbamic acid, 1,1-dimethylethyl(R)-2,3-dihydro-1H-inden-1-yl ester] | 95 | < 5.66 | – |
| CC(C)(C)OC(=O)N[C@@H](Cc1ccccc1)[C@H](O)CNC[C@@H](O)[C@H](Cc1ccccc1)NC(=O)OC1(C)CCOC1 (stereo partly drawn) [Compound 314, [1S-(1R*,2S*)]-[Iminobis[2-hydroxy-1-(phenylmethyl)-3,1-propanediyl]]bis[carbamic acid], 1,1-dimethylethyl-3-methyl-3-tetrahydrofuranyl ester] | 100 | 6.92 | – |
| CC(C)(C)OC(=O)N[C@@H](Cc1ccccc1)[C@H](O)CNC[C@@H](O)[C@H](Cc1ccccc1)NC(=O)C(O)(CO)C(C)(C)C (single isomer, unassigned; isomer a) [Compound 366, [1S-[1R*,2S*(2S*,3R*)]]-[3-[[3-[[2-Hydroxy-2-(hydroxymethyl)-3.3-dimethyl-1-oxobutyl]amino]-2-hydroxy-4-phenylbutyl]amino]-2-hydroxy-1-(phenylmethyl)propyl]carbamic acid. 1.1-dimethylethyl ester, isomer A] | – | 8.05 | HIV Protease % Inhibition at 10 μM (HIV protease; 10 μM inhibitor, 4% DMSO, 450 μM substrate, pH 5.5, 30 minutes at 37° C., RP-HPLC): 99% |
| CC(C)[C@@H](C(=O)N[C@@H](Cc1ccccc1)[C@H](O)CNC[C@@H](O)[C@H](Cc1ccccc1)NC(=O)OC(C)(C)C)N(C)C(=O)OCc1ccccc1 [Compound 66, [S-[1R*,2S*(2S*,3R*)]]-N-[3-[[3-[(1,1-Dimethylethoxy)carbonyl)amino]-2-hydroxy-4-[phenylbutyl]amino]-2-hydroxy-1-(phenylmethyl)propyl]-N^2-methyl-N^2 [(phenylmethoxy)-carbonyl]-L-valinamide] | 99 | 6.57 | – |
| CC(C)(C)OC(=O)N[C@@H](Cc1ccccc1)[C@H](O)CNC[C@@H](O)[C@H](Cc1ccc(OCC(O)c2cccnc2)cc1)NC(=O)OC(C)(C)C (single isomer, unassigned; isomer a) [Compound 355, [1S-[1R*,2S* (2S*,3R*)]]-[3-[[3-[[(1,1-Dimethylethoxy)carbonyl]amino]-2-hydroxy-4-[4-[2-hydroxy-2-(3-pyridinyl)ethoxy]phenyl]-butyl]amino]-2-hydroxy-1-(phenylmethyl)-propyl]-carbamic acid, 1,1-dimethylethyl ester, Isomer A] | – | 7.15 | inhibition at 10 µM (HIV protease; [2]): 99% |
| Cc1ccc(N(C)CCOc2ccc(C[C@H](NC(=O)OC(C)(C)C)[C@H](O)CNC[C@@H](O)[C@H](Cc3ccccc3)NC(=O)OC(C)(C)C)cc2)cc1 [Compound 217, [1S-[1R*,2S*(2S*,3R*)]]-[3-[[3-[[(1,1-Dimethylethoxy)carbonyl]amino]-2-hydroxy-4-[4-[2-methyl(4-methylphen-yl)amino]-ethoxyl]phenyl]butyl]amino]-2-hydroxy-1-(phenylmethyl) propyl]carbamic acid, 1,1-dimethylethyl ester] | 100 | 6.32 | – |

Now from value to compound, other results behind:

| inhibition at 10 µM (HIV protease; [4]) [%] | SMILES | pIC50 [1, 3] | also measured |
| --- | --- | --- | --- |
| 57 | CC(C)[C@H](NC(=O)OC(C)(C)C)C(=O)N[C@@H](Cc1ccccc1)[C@H](O)CNC[C@@H](O)[C@H](Cc1ccccc1)NC(=O)OC(C)(C)C [Compound 58, [S-[1R*,2S*(2S*,3R*)]-N-[3-[[3-[[(1,1-Dimethylethoxy)carbonyl]amino]-2-hydroxy-4-phenylbutyl]amino]-2-hydroxy-1-(phenylmethyl)-propyl-N^2-[(1,1-dimethylethoxy)-carbonyl]-L-valinamide] | 6.00 | – |
| 99 | CC(C)(C)OC(=O)N[C@@H](Cc1ccccc1)[C@H](O)CNC[C@@H](O)[C@H](Cc1ccccc1)NC(=O)OC(C)(C)[C@@H](O)CO [Compound 227, [1S-(1R*,2S*),(R*)]-[Iminobis[2-hydroxy-1-(phenylmethyl)-3,1-propanediyl]]biscarbamic acid, 2,3-dihydroxy-1,1-dimethylpropyl 1,1-dimethylethyl ester] | 6.05 | – |
| 99 | CC(C)[C@H](NC(=O)[C@@H](N)CO)C(=O)N[C@@H](Cc1ccccc1)[C@H](O)CNC[C@@H](O)[C@H](Cc1ccccc1)NC(=O)OC(C)(C)C (relative stereo) [Compound 212, [1R*,2S*(2S*,3R*)]-N-[N-[3-[[3-[[(1,1-Dimethylethoxy)carbonyl]amino]-2-hydroxy-4-phenylbutyl]amino]-2-hydroxy-1-(phenylmethyl)propyl]-L-valyl]-L-serinamide, fumarate (2:3) salt] | 5.42 | – |
| 90 | COC(C(=O)N[C@@H](Cc1ccccc1)[C@H](O)CNC[C@@H](O)[C@H](Cc1ccccc1)NC(=O)OC(C)(C)C)C(C)(C)C (stereo partly drawn) [Compound 325, [1S-[1R*,2S*(2S*,3R*)]]-[2-Hydroxy-3-[[2-hydroxy-3-[(2-methoxy-3,3-dimethyl-1-oxobutyl)amino]-4-phenylbutyl]amino]-1-(phenylmethyl)-propyl]carbamic acid, 1,1-dimethylethyl ester] | 5.81 | – |
